The results in this text go back to patent publication EP0072121A1, “Beta-lactam antibiotics” (BEECHAM GROUP PLC, priority 1981, dated 1983).

≈ marks a conversion by molar mass, not a printed value.

Common to all, as to experiment: standard MIC test
Holding throughout (type): cell-based

One assay concerns Bacillus subtilis A. From the text:
(§1) In a standard MIC test the compound of Examples 1 and 2 afforded the following data (µg/ml).

The subject of the next assay is Citrobacter freundii E8.
Text: as §1

The subject of assay [1] is Enterobacter cloacae N1 [T753].
Text: as §1

The test system of the next assay is Escherichia coli ESS.
Text: as §1

The next assay has as its system Escherichia coli JT20.
Text: as §1

Assay [2] deals with Escherichia coli JT39 [E96].
Text: as §1

For a further assay, the system named is Escherichia coli JT410.
Text: as §1

In assay [3] the test system is Escherichia coli O111 [E8].
Text: as §1

Assay [4] deals with Klebsiella aerogenes A [T767].
Text: as §1

For assay [5], the system named is Klebsiella aerogenes Ba95.
Text: as §1

Assay [6] has as its system Proteus mirabilis 977 [13].
Text: as §1

A further assay concerns Proteus morganii 1580. As to conditions: Morganella morganii.
Text: as §1

For another assay, the system named is Proteus rettgeri WM16. As to conditions: Providencia rettgeri.
Text: as §1

For another assay, the system named is Proteus vulgaris W091.
Text: as §1

The next assay concerns Pseudomonas Dalgleish.
Text: as §1

For assay [7], the system named is Pseudomonas aeruginosa A [11].
Text: as §1

The subject of assay [8] is Salmonella typhimurium CT10. As to conditions: Salmonella enterica.
Text: as §1

The next assay deals with Shigella sonnei MB11967.
Text: as §1

For assay [9], the system named is Staphylococcus aureus 1517.
Text: as §1

Assay [10] relates to Staphylococcus aureus Oxford.
Text: as §1

The test system of assay [11] is Staphylococcus aureus Russell MB9.
Text: as §1

Assay [12] has as its system Streptococcus pneumoniae CN33.
Text: as §1

The subject of a further assay is Streptocuccus faecalis I.
Text: as §1

Assay [13] deals with Streptocuccus pyogenes CN10.
Text: as §1

In general, MIC refers to the smallest concentration in the dilution series that meets the test's criterion for growth inhibition. A higher MIC goes with weaker potency.

For `CC(=N)NCCOC(=O)/C=C\SC1=C(C(=O)O)N2C(=O)[C@@H]([C@H](C)O)[C@H]2C1` [Ex.1, (5R,6R)-3-[(Z)-2-Acetimidoylaminoethyloxycarbonyl-ethenylthio]-6-[(S)-1-hydroxyethyl]-7-oxo-1-azabicyclo[3.2.0]hept-2-ene-2-carboxylic acid], the MIC against Bacillus subtilis A was no more than 0.1 µg/mL; in the assay on Citrobacter freundii E8, 0.4 µg/mL (≈ 1.04 µM); in assay [1], 3.1 µg/mL (≈ 8.09 µM); against Escherichia coli ESS, no more than 0.1 µg/mL; in the assay on Escherichia coli JT20, 3.1 µg/mL (≈ 8.09 µM); in assay [2], 0.2 µg/mL (≈ 0.522 µM). The MIC against Escherichia coli JT410 was determined as 0.2 µg/mL (≈ 0.522 µM); in assay [3] it was 0.2 µg/mL (≈ 0.522 µM); in assay [4] it was 0.2 µg/mL (≈ 0.522 µM); in assay [5], 3.1 µg/mL (≈ 8.09 µM); in assay [6] it was 0.4 µg/mL (≈ 1.04 µM); in the assay with Proteus morganii 1580, 1.6 µg/mL (≈ 4.17 µM). Moreover, the minimal inhibitory concentration (MIC) came to 1.6 µg/mL (≈ 4.17 µM) against Proteus rettgeri WM16; 3.1 µg/mL (≈ 8.09 µM) in the assay with Proteus vulgaris W091; 25 µg/mL (≈ 65.2 µM) against Pseudomonas Dalgleish; 25 µg/mL (≈ 65.2 µM) in assay [7]; 0.2 µg/mL (≈ 0.522 µM) in assay [8]; 0.2 µg/mL (≈ 0.522 µM) against Shigella sonnei MB11967. The minimum inhibitory concentration (MIC) in assay [9] was 0.8 µg/mL (≈ 2.09 µM); in assay [10], no more than 0.1 µg/mL; in [11] it was no more than 0.1 µg/mL; in assay [12], no more than 0.1 µg/mL; with Streptocuccus faecalis I it was no more than 0.1 µg/mL; in assay [13] it was no more than 0.1 µg/mL.

As to `CC(=N)NCCOC(=O)/C=C\SC1=C(C(=O)O)N2C(=O)[C@H]([C@@H](C)O)[C@H]2C1` [Ex.2, (5R,6S)-3-[(S)-2-Acetimidoylaminoethyloxycarbonyl-ethenylthio]-6-[(R)-1-hydroxyethyl]-7-oxo-1-azabicyclo [3.2.0]hept-2-ene-2-carboxylic acid], the minimal inhibitory concentration (MIC) is less than 0.1 µg/mL in the assay on Bacillus subtilis A; 0.4 µg/mL (≈ 1.04 µM) against Citrobacter freundii E8; 0.8 µg/mL (≈ 2.09 µM) in assay [1]; 0.2 µg/mL (≈ 0.522 µM) against Escherichia coli ESS; 0.2 µg/mL (≈ 0.522 µM) against Escherichia coli JT20; 0.2 µg/mL (≈ 0.522 µM) in assay [2]. The minimal inhibitory concentration (MIC) against Escherichia coli JT410 was 0.2 µg/mL (≈ 0.522 µM); in assay [3] it was 0.2 µg/mL (≈ 0.522 µM); in assay [4] it was 0.2 µg/mL (≈ 0.522 µM); in assay [5], 0.4 µg/mL (≈ 1.04 µM); in assay [6], 0.8 µg/mL (≈ 2.09 µM); with Proteus morganii 1580, 1.6 µg/mL (≈ 4.17 µM). In addition, the MIC in the assay on Proteus rettgeri WM16 turned out to be 0.8 µg/mL (≈ 2.09 µM); against Proteus vulgaris W091, 0.8 µg/mL (≈ 2.09 µM); with Pseudomonas Dalgleish, 25 µg/mL (≈ 65.2 µM); in assay [7] it was 25 µg/mL (≈ 65.2 µM); in assay [8], 0.2 µg/mL (≈ 0.522 µM); against Shigella sonnei MB11967, 0.2 µg/mL (≈ 0.522 µM). For the same molecule, the MIC in [9] is 1.6 µg/mL (≈ 4.17 µM); in [10] it was no more than 0.1 µg/mL; in assay [11], no more than 0.1 µg/mL; against Streptocuccus faecalis I, 0.2 µg/mL (≈ 0.522 µM).
